Measured values taken from US20240308968A1, “FUNGICIDAL SUBSTITUTED HETEROCYCLES” (FMC Corporation, priority 2021, published 2024).

What was measured:
Format in all cases: in vivo
Phakopsora pachyrhizi = experiment: Test D: preventive spray on soybean seedlings, Asian soybean rust disease rating; settings: 100 = 100% disease control, 0 = no control; for pest or weed control at 250 ppm / pest or weed control at 50 ppm: Phakopsora pachyrhizi, 216 h
Text: (§1) General protocol for preparing test suspensions for Tests A-F: the test compounds were first dissolved in acetone in an amount equal to 3% of the final volume and then suspended at the desired concentration (in ppm) in acetone and purified water (50/50 mix by volume) containing 50 to 250 ppm of the surfactant PEG400 (polyhydric alcohol esters). The resulting test suspensions were then used in Tests A-F.
The test solution was sprayed to the point of run-off on soybean seedlings. The following day the seedlings were inoculated with a spore suspension of Phakopsora pachyrhizi (the causal agent of Asian soybean rust) and incubated in a saturated atmosphere at 22° C. for 24 h and then moved to a growth chamber at 22° C. for 8 days, after which time visual disease ratings were made.
(§2) The test suspension was sprayed to the point of run-off on tomato seedlings. The following day the seedlings were inoculated with a spore suspension of Alternaria solani (the causal agent of tomato early blight) and incubated in a saturated atmosphere at 27° C. for 48 h, and then moved to a growth chamber at 20° C. for 3 days, after which time visual disease ratings were made. A rating of 100 indicates 100% disease control and a rating of 0 indicates no disease control (relative to the controls). A dash (-) indicates the compound was not tested.

[1] = tested on: Blumeria graminis f. sp. Tritici; experiment: Test C: preventive spray on wheat seedlings, wheat powdery mildew disease rating; settings: 100 = 100% disease control, 0 = no control; for pest or weed control at 250 ppm / pest or weed control at 50 ppm: Blumeria graminis, 192 h
Text: as §1
The test suspension was sprayed to the point of run-off on wheat seedlings. The following day the seedlings were inoculated with a spore dust of Blumeria graminis f. sp. Tritici, (also known as Erysiphe graminis f. sp. Tritici, the causal agent of wheat powdery mildew) and incubated in a growth chamber at 20° C. for 8 days, after which time visual disease ratings were made.
as §2

[2] = tested on: Puccinia recondita f. sp. Tritici; experiment: Test B: preventive spray on wheat seedlings, wheat leaf rust disease rating; settings: 100 = 100% disease control, 0 = no control; for pest or weed control at 250 ppm / pest or weed control at 50 ppm: Puccinia recondita, 192 h
Text: as §1
The test solution was sprayed to the point of run-off on wheat seedlings. The following day the seedlings were inoculated with a spore suspension of Puccinia recondita f. sp. Tritici (the causal agent of wheat leaf rust) and incubated in a saturated atmosphere at 20° C. for 24 h, and then moved to a growth chamber at 20° C. for 7 days, after which time disease ratings were made.
as §2

Zymoseptoria tritici = experiment: Test A: preventive spray on wheat seedlings, wheat leaf blotch disease rating; settings: 100 = 100% disease control, 0 = no control; for pest or weed control at 250 ppm / pest or weed control at 50 ppm: Zymoseptoria tritici, 456 h
Text: as §1
The test solution was sprayed to the point of run-off on wheat seedlings. The following day the seedlings were inoculated with a spore suspension of Zymoseptoria tritici (the causal agent of wheat leaf blotch) and incubated in a saturated atmosphere at 24° C. for 48 h, and then moved to a growth chamber at 20° C. for 17 days, after which time disease ratings were made. […]

Alternaria solani = experiment: Test F: preventive spray on tomato seedlings, tomato early blight disease rating; settings: 100 = 100% disease control, 0 = no control; for pest or weed control at 250 ppm / pest or weed control at 50 ppm: Alternaria solani, 120 h
Text: as §1, §2

Botrytis cinerea = experiment: Test E: preventive spray on tomato seedlings, tomato Botrytis disease rating; settings: 100 = 100% disease control, 0 = no control; for pest or weed control at 250 ppm / pest or weed control at 50 ppm: Botrytis cinerea, 120 h
Text: as §1
The test suspension was sprayed to the point of run-off on tomato seedlings. The following day the seedlings were inoculated with a spore suspension of Botrytis cinerea (the causal agent of tomato Botrytis) and incubated in a saturated atmosphere at 20° C. for 48 h, and then moved to a growth chamber at 24° C. for 3 days, after which time visual disease ratings were made.
as §2

Compound	Test D disease control rating (Phakopsora pachyrhizi; 50 ppm) [%]	Test C disease control rating ([1]; 50 ppm) [%]	Test B disease control rating ([2]; 50 ppm) [%]	Test A disease control rating (Zymoseptoria tritici; 50 ppm) [%]	Test F disease control rating (Alternaria solani; 50 ppm) [%]	Test E disease control rating (Botrytis cinerea; 50 ppm) [%]	further results
CCOC(=O)c1nn(-c2cc(OC)cc(OC)c2)c(-c2ccc(F)cc2F)c(C)c1=O [Compound 28, ethyl 6-(2,4-difluorophenyl)-1-(3,5-dimethoxyphenyl)-1,4-dihydro-5-methyl-4-oxo-3-pyridazinecarboxylate]							pest or weed control at 250 ppm (Phakopsora pachyrhizi; 250 ppm): 0%; pest or weed control at 250 ppm ([1]; 250 ppm): 43%; pest or weed control at 250 ppm ([2]; 250 ppm): 83%; pest or weed control at 250 ppm (Zymoseptoria tritici; 250 ppm): 0%; pest or weed control at 250 ppm (Alternaria solani; 250 ppm): 0%; pest or weed control at 250 ppm (Botrytis cinerea; 250 ppm): 31%
Cn1nc(-c2ccsc2)c(-c2c(F)cccc2F)cc1=O [Compound 1]							Test D disease control rating (Phakopsora pachyrhizi; 250 ppm): 65%; Test C disease control rating ([1]; 250 ppm): 0%; Test B disease control rating ([2]; 250 ppm): 0%; Test A disease control rating (Zymoseptoria tritici; 250 ppm): 0%; Test F disease control rating (Alternaria solani; 250 ppm): 0%; Test E disease control rating (Botrytis cinerea; 250 ppm): 0%
Cc1ccncc1-c1nn(C)c(=O)c(Cl)c1-c1ccc(F)cc1Cl [Compound 4, 4-chloro-5-(2-chloro-4-fluorophenyl)-2-methyl-6-(4-methyl-3-pyridinyl)-3(2H)-pyridazinone]							pest or weed control at 50 ppm (Phakopsora pachyrhizi; 50 ppm): 38%; pest or weed control at 50 ppm ([1]; 50 ppm): 89%; pest or weed control at 50 ppm ([2]; 50 ppm): 89%; pest or weed control at 50 ppm (Zymoseptoria tritici; 50 ppm): 100%; pest or weed control at 50 ppm (Alternaria solani; 50 ppm): 70%; pest or weed control at 50 ppm (Botrytis cinerea; 50 ppm): 65%
COc1cc(OC)c(Cl)c(-c2nc(Cl)nc(C)c2-c2ccc(F)cc2Cl)c1 [Compound 49, 2-chloro-4-(2-chloro-3,5-dimethoxyphenyl)-5-(2-chloro-4-fluorophenyl)-6-methylpyrimidine]							pest or weed control at 250 ppm (Phakopsora pachyrhizi; 250 ppm): 100%; pest or weed control at 250 ppm ([1]; 250 ppm): 100%; pest or weed control at 250 ppm ([2]; 250 ppm): 100%; pest or weed control at 250 ppm (Zymoseptoria tritici; 250 ppm): 100%; pest or weed control at 250 ppm (Alternaria solani; 250 ppm): 100%; pest or weed control at 250 ppm (Botrytis cinerea; 250 ppm): 96%
Cc1c(-c2ccc(F)cc2Cl)c(-c2ccc(Cl)s2)nn(C)c1=O [Compound 10]	12	96	68	100	16	96	
COc1cc(OC)cc(-n2nc(CF)c(=O)c(C)c2-c2ccc(F)cc2F)c1 [Compound 26]	99	98	100	100	99	98	
Cc1c(-c2ccc(F)cc2Cl)c(-c2ccsc2)nn(C)c1=O [Compound 5]	21	96	74	100	91	93	
Cn1nc(-c2ccoc2)c(-c2c(F)cccc2F)cc1=O [Compound 3]							Test D disease control rating (Phakopsora pachyrhizi; 250 ppm): 38%; Test C disease control rating ([1]; 250 ppm): 0%; Test B disease control rating ([2]; 250 ppm): 0%; Test A disease control rating (Zymoseptoria tritici; 250 ppm): 0%; Test F disease control rating (Alternaria solani; 250 ppm): 0%; Test E disease control rating (Botrytis cinerea; 250 ppm): 0%
COc1ccc(Cl)c(-n2nc(OC)c(=O)cc2-c2ccc(F)cc2Cl)c1 [Compound 118]	0	56	99	80	0	97	
Cc1c(-c2nn(C)c(=O)c(C)c2-c2ccc(F)cc2Cl)csc1Br [Compound 15]	24	99	100	100	99	92	
COc1cc(OC)c(Cl)c(-n2c(-c3ccc(F)cc3Cl)c(Cl)c(=O)n(C)c2=O)c1 [Compound 35, 5-chloro-1-(2-chloro-3,5-dimethoxyphenyl)-6-(2-chloro-4-fluorophenyl)-3-methyl-2,4(1H,3H)-pyrimidinedione]							pest or weed control at 50 ppm (Phakopsora pachyrhizi; 50 ppm): 91%; pest or weed control at 50 ppm ([1]; 50 ppm): 98%; pest or weed control at 50 ppm ([2]; 50 ppm): 100%; pest or weed control at 50 ppm (Zymoseptoria tritici; 50 ppm): 100%; pest or weed control at 50 ppm (Alternaria solani; 50 ppm): 0%; pest or weed control at 50 ppm (Botrytis cinerea; 50 ppm): 94%
COc1cc(OC)c(Cl)c(-n2nc(N)c(=O)c(C)c2-c2ccc(F)cc2Cl)c1 [Compound 87]	100	96	98	100	99	96	
Cc1c(-c2ccc(F)cc2Cl)c(-c2ccc(Br)s2)nn(C)c1=O [Compound 17]	12	56	68	99	0	39	
COc1cc(OC)cc(-c2nc(C)ncc2-c2c(F)cc(F)cc2F)c1 [Compound 41]							Test D disease control rating (Phakopsora pachyrhizi; 250 ppm): 0%; Test C disease control rating ([1]; 250 ppm): 91%; Test B disease control rating ([2]; 250 ppm): 0%; Test A disease control rating (Zymoseptoria tritici; 250 ppm): 84%; Test F disease control rating (Alternaria solani; 250 ppm): 0%; Test E disease control rating (Botrytis cinerea; 250 ppm): 17%
COc1cc(OC)c(Cl)c(-n2nc(I)c(=O)c(C)c2-c2ccc(F)cc2Cl)c1 [Compound 96]	100	99	100	100	100	98	
CCc1nc(C)nc(-c2cc(OC)cc(OC)c2Cl)c1-c1c(F)cccc1F [Compound 57, 4-(2-chloro-3,5-dimethoxyphenyl)-5-(2,6-difluorophenyl)-6-ethyl-2-methylpyrimidine]							pest or weed control at 50 ppm (Phakopsora pachyrhizi; 50 ppm): 73%; pest or weed control at 50 ppm ([1]; 50 ppm): 100%; pest or weed control at 50 ppm ([2]; 50 ppm): 100%; pest or weed control at 50 ppm (Zymoseptoria tritici; 50 ppm): 100%; pest or weed control at 50 ppm (Alternaria solani; 50 ppm): 97%; pest or weed control at 50 ppm (Botrytis cinerea; 50 ppm): 96%
COc1cc(OC)c(Cl)c(-n2nc(CF)c(=O)c(C)c2-c2ccc(F)cc2Cl)c1 [Compound 85]	100	99	100	100	100	93	
Cc1c(-c2ccc(F)cc2Cl)c(-c2ccsc2Cl)nn(C)c1=O [Compound 7, 5-(2-chloro-4-fluorophenyl)-6-(2-chloro-3-thienyl)-2,4-dimethyl-3(2H)-pyridazinone]							pest or weed control at 50 ppm (Phakopsora pachyrhizi; 50 ppm): 100%; pest or weed control at 50 ppm ([1]; 50 ppm): 99%; pest or weed control at 50 ppm ([2]; 50 ppm): 100%; pest or weed control at 50 ppm (Zymoseptoria tritici; 50 ppm): 99%; pest or weed control at 50 ppm (Alternaria solani; 50 ppm): 99%; pest or weed control at 50 ppm (Botrytis cinerea; 50 ppm): 97%
COc1cc(OC)cc(-c2cc(C#N)c(=O)n(N)c2-c2c(F)cc(F)cc2F)c1 [Compound 153]	0	0	80	0	0	0	
Cc1c(-c2ccc(F)cc2Cl)c(-c2ccsc2Br)nn(C)c1=O [Compound 6]	78	99	100	100	99	91	
